# Experimental data: patent publication US5776929A, “Benzodiazepine derivative” (Shionogi & Co., Ltd., priority 1993, dated 1998)
# Like-named read-outs stand apart in the source and are kept apart here.
# Key:
# [1] = target: T1, gastrin receptor (Cavia porcellus, UniProt H0VZC5); assay: Gastrin receptor antagonism, displacement of 125I-labeled gastrin, gastric (fundic) gland cells; type: binding, guinea pig (male Hartley)
# T1 construct: stomach was extracted from each animal immediately, from which gastric glands were prepared; from tissue; host or cells: gastric (fundic) glands of male Hartley guinea pigs
# T1 sequence (H0VZC5 1-426): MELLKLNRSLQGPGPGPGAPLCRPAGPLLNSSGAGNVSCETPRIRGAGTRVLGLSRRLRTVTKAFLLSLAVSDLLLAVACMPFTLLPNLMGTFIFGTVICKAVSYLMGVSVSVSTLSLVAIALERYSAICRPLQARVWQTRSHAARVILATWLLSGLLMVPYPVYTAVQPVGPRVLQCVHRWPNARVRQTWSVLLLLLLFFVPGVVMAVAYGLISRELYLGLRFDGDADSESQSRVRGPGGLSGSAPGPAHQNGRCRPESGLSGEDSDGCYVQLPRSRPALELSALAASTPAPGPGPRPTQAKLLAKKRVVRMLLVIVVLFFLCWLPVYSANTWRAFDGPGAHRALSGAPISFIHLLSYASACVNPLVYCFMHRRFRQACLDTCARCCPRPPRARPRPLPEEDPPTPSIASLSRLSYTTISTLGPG
# Description: (§1) Male Hartley guinea pig (450-600 g) or male ddY mouse (24-30 g) were used.
# (1) Gastrin Receptor Antagonism
# Preparation of gastric glands:
# Male Hartley guinea pigs (450-600 g) were killed by bleeding and stomach was extracted from each animal immediately, from which gastric glands were prepared.
# Preparation of test compounds and procedures of displacing assay
# A 1M solution of a compound to be tested in DMSO is prepared and diluted with 50% DMSO to obtain a ten-fold dilution series.
# The mixture is incubated for 30 min at 25° C., centrifuged at 2000 rpm for 5 min and the supernatant is removed by aspiration. To the pellet is added ice-cooled incubation buffer and mixed gently, followed by an immediate centrifugation and removal of the supernatant by aspiration. The radioactivity is counted on gamma counter. The same procedure was repeated using 50% DMSO solution or human gastrin I (final concentration, 2 μM) instead of a solution of test compound so as to obtain the control value regarding total binding or the value regarding non-specific binding, respectively. […]
# (§2) specific binding of control=total binding (cpm)-non-specific binding (cpm); and specific binding of test compound=[…]-non-specific binding (cpm).
# [2] = target: T2, CCK-B receptor (Mus musculus, UniProt P56481); assay: CCK-B receptor antagonism, displacement of [3H]CCK-8, cerebral cortex crude membrane; type: binding, mouse (male ddY)
# T2 construct: crude membrane specimen from mouse cerebral cortex; from tissue; host or cells: cerebral cortex of male ddY mice, crude membranes
# T2 sequence (P56481 1-453): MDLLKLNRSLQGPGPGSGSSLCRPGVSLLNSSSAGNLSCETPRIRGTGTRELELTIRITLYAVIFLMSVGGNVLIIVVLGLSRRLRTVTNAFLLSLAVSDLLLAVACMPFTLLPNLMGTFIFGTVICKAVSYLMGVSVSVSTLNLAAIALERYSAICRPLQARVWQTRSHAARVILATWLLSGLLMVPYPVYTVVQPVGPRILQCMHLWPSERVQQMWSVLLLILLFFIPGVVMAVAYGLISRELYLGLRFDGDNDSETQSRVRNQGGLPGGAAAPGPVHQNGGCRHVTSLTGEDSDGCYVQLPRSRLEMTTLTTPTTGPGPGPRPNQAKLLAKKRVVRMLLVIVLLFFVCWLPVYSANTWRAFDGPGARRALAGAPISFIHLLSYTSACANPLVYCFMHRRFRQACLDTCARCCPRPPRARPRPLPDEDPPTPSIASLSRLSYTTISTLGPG
# Description: as §1
# (§3) (2) CCK-A Receptor Antagonism and CCK-B Receptor Antagonism
# (§4) Preparation of CCK receptor preparations
# (§5) Male ddY mice (24 to 30 g) were killed by decapitation and cerebral cortex (CCK-B) and pancreas (CCK-A) were extracted immediately. Each of cerebral cortex and pancreas was mixed with 50 mM Tris-HCl buffer (pH 7.4) and homogenized with a teflon-glass homogenizer and polytron homogenizer to obtain crude membrane specimens.
# (§6) Preparation of test compounds and procedures of displacing assay A 1M solution of a compound to be tested in DMSO is prepared and diluted with 50% DMSO to obtain a ten-fold dilution series.
# (§7) The reaction is initiated by the addition of crude membrane specimen to solutions of different concentration each containing [^3 H]CCk-8 (final concentration, 1 nM). The mixture is incubated for 90 min at 25° C., filtered through glass filter with aspiration and washed with a cooled 50 mM Tris buffer. After the addition of Aquazol-2 cocktail the radioactivity is counted. The same procedure was repeated using 50% DMSO solution or Ceruletide (final concentration, 1 μM) instead of a solution of test compound so as to obtain the control value regarding total binding or the value regarding non-specific binding, respectively. […]
# as §2
# [3] = target: T3, CCK-A receptor (Mus musculus, UniProt O08786); assay: CCK-A receptor antagonism, displacement of [3H]CCK-8, pancreas crude membrane; type: binding, mouse (male ddY)
# T3 construct: crude membrane specimen from mouse pancreas; from tissue; host or cells: pancreas of male ddY mice, crude membranes
# T3 sequence (O08786 1-436): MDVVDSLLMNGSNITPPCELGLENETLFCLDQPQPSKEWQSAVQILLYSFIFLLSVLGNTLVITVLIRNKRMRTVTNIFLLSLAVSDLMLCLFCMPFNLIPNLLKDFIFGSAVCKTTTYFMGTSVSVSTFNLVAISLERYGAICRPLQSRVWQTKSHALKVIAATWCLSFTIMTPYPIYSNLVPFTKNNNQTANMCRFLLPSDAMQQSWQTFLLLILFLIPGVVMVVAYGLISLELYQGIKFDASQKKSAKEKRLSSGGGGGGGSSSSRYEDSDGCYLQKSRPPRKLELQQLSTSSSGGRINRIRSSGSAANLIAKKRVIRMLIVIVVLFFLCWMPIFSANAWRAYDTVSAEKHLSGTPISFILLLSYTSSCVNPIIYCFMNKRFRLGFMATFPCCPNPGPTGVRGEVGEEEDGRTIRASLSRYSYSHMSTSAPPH
# Description: as §1, §3, §4, §5, §6, §7, §2
# [4] = guinea pig gastric glands, 125I-gastrin 0.2 nM, 30 min, 25 °C, read-out: Receptor Gastrin (IC50)
# [5] = mouse cerebral cortex membrane, [3H]CCK-8 1 nM, 90 min, 25 °C, read-out: Receptor CCK-B (IC50)
# [6] = mouse pancreas membrane, [3H]CCK-8 1 nM, 90 min, 25 °C, read-out: Receptor CCK-A (IC50)
Compound,"IC50 [1, 4]","IC50 [2, 5]","IC50 [3, 6]",IC50 [1],IC50 [2],IC50 [3]
"CC(C)(C)OC(=O)CN1C(=O)C(NC(=O)Nc2cccc(COC(=O)NCCCC(=O)OCc3ccccc3)c2)C(=O)N(CC(=O)OC(C)(C)C)c2ccccc21 [Compound 10s, 1,5-Bis-(tert-butoxycarbonylmethyl)-3-(N'-(3-(3-(benzyloxycarbonyl)propylcarbamoyloxymethyl)phenyl)-ureido)-1H-1,5-benzodiazepine-2,4(3H,5H)-dione]",7 nM,4 nM,< 100 nM,,,
"COC(=O)CCCNC(=O)OCc1cccc(NC(=O)NC2C(=O)N(CC(=O)c3ccccc3C)c3ccccc3N(CC(=O)c3ccccc3C)C2=O)c1 [Compound 9d, 1,5-Bis-(o-methylphenacyl)-3-(N'-(3-(3-(carbomethoxy)propylcarbamoyloxymethyl)phenyl)ureido)-1H-1,5-benzodiazepine-2,4(3H,5H)-dione]",6 nM,11 nM,< 100 nM,,,
"COC(=O)CCCNC(=O)OCc1cccc(NC(=O)NC2C(=O)N(CC(=O)C3CC3)c3ccccc3N(CC(=O)C3CC3)C2=O)c1 [Compound 9h, 1,5-Bis-(cyclopropylcarbonylmethyl)-3-(N'-(3-(3-(carbomethoxy)propylcarbamoyloxymethyl)phenyl)ureido)-1H-1,5-benzodiazepine-2,4(3H,5H)-dione]",4 nM,20 nM,1250 nM,,,
"COC(=O)CCCNC(=O)OCc1cccc(NC(=O)NC2C(=O)N(CC(=O)N3CCCC3)c3ccccc3N(CC(=O)N3CCCC3)C2=O)c1 [Compound 9a, 1,5-Bis-(pyrrolidinecarbonylmethyl)-3-(N'-(3-(3-(carbomethoxy)propylcarbamoyloxymethyl)phenyl)ureido)-1H-1,5-benzodiazepine-2,4(3H,5H) -dione]",8 nM,130 nM,2100 nM,,,
"O=C(O)CCCNC(=O)OCc1cccc(NC(=O)NC2C(=O)N(CC3CC3)c3ccccc3N(CC3CC3)C2=O)c1 [Compound 11o, 1,5-Bis-(cyclopropylmethyl)-3-(N'-(3-(3-(carboxy)propylcarbamoyloxymethyl)phenyl)ureido)-1H-1,5-benzodiazepine-2,4(3H,5H)-dione]",18 nM,36 nM,1850 nM,,,
"COC(=O)CCCNC(=O)OCc1cccc(NC(=O)NC2C(=O)N(CC3CC3)c3ccccc3N(CC3CC3)C2=O)c1 [Compound 9o, 1,5-Bis-(cyclopropylmethyl)-3-(N'-(3-(3-(carbomethoxy)propylcarbamoyloxymethyl)phenyl)ureido)-1H-1,5-benzodiazepine-2,4(3H,5H)-dione]",31 nM,78 nM,3900 nM,,,
"CCOC(=O)c1cccc(NC(=O)NC2C(=O)N(CC(=O)N3CCCC3)c3ccccc3N(CC(=O)N3CCCC3)C2=O)c1 [Compound 18-i, 1,5-Bis-(pyrrolidinocarbonylmethyl)-3-(N'-(m-(carboethoxy)phenyl)ureido)-1H-1,5-benzodiazepine-2,4(3H,5H)-dione]",25 nM,440 nM,3200 nM,,,
"COC(=O)CCCNC(=O)OCc1cccc(NC(=O)NC2C(=O)N(CC(=O)C3CCCC3)c3ccccc3N(CC(=O)C3CCCC3)C2=O)c1 [Compound 9i, 1,5-Bis-(cyclopentylcarbonylmethyl)-3-(N'-(3-(3-(carbomethoxy)propylcarbamoyloxymethyl)phenyl)ureido)-1H-1,5-benzodiazepine-2,4(3H,5H)-dione]",7 nM,2 nM,290 nM,,,
COC(=O)CCCNC(=O)OCc1cccc(NC(=O)NC2C(=O)N(CC(=O)c3cccs3)c3ccccc3N(CC(=O)c3cccs3)C2=O)c1 [Compound 9g],3 nM,7 nM,420 nM,,,
"Cc1cccc(NC(=O)NC2C(=O)N(CC(=O)OC(C)(C)C)c3ccccc3N(CC(=O)OC(C)(C)C)C2=O)c1 [Compound 8s, 1,5-Bis-(t-butoxycarbonylmethyl)-3-(N'-(m-tolyl)ureido)-1H-1,5-benzodiazepine-2,4(3H,5H)-dione]",2 nM,2 nM,100 nM,,,
"COC(=O)CCCNC(=O)OCc1cccc(NC(=O)NC2C(=O)N(CC(=O)N3CCSC3)c3ccccc3N(CC(=O)N3CCSC3)C2=O)c1 [Compound 9b, 1,5-Bis-(thiazolidinecarbonylmethyl)-3-(N'-(3-(3-(carbomethoxy)propylcarbamoyloxymethyl)phenyl)ureido)-1H-1,5-benzodiazepine-2,4(3H,5H)-dione]",,,,14 nM,120 nM,360 nM
"O=C(CN1C(=O)C(NC(=O)Nc2cccc(COC(=O)NCCCC(=O)OCc3ccccc3)c2)C(=O)N(CC(=O)NC2CC2)c2ccccc21)NC1CC1 [Compound 10c, 1,5-Bis-(cyclopropylcarbamoylmethyl)-3-(N'-(3-(3-(benzoyloxycarbonyl)propylcarbamoyloxymethyl)-phenyl)ureido)-1H-1,5-benzodiazepine-2,4 (3H,5H)-dione]",64 nM,380 nM,2100 nM,,,
"O=C(O)CCCNC(=O)OCc1cccc(NC(=O)NC2C(=O)N(CC(=O)c3ccco3)c3ccccc3N(CC(=O)c3ccco3)C2=O)c1 [Compound 11f, 1,5-Bis-(2-furylcarbonylmethyl)-3-(N'-(3-(3-(carboxy)propylcarbamoyloxymethyl)phenyl)ureido)-1H-1,5-benzodiazepine-2,4(3H,5H)-dione]",6 nM,38 nM,800 nM,,,
"COC(=O)CCCNC(=O)OCc1cccc(NC(=O)NC2C(=O)N(CC(=O)c3ccco3)c3ccccc3N(CC(=O)c3ccco3)C2=O)c1 [Compound 9f, 1,5-Bis-(2-furylcarbonylmethyl)-3-(N'-(3-(3-(carbomethoxy)propylcarbamoyloxymethyl)phenyl)ureido) -1H-1,5-benzodiazepine-2,4(3H,5H)-dione]",7 nM,62 nM,1400 nM,,,
